Patent US20100069364A1, “SUBSTITUTED PYRAZOLINE COMPOUNDS WITH ACAT INHIBITION ACTIVITY, THEIR PREPARATION AND USE AS MEDICAMENTS” (LABORATORIOS DEL DR. ESTEVE, S.A., priority 2007, published 2010)
Read-outs that look alike come from different tables or passages of the source.

Assays:
[1] = system: T1, ACAT (Acyl CoA-Cholesterol Acyltransferase); assay: In-vitro determination of inhibition of ACAT in hepatic microsomes, [14C]-Palmitoyl CoA substrate; type: biochemical, Wistar rats; details: rat hepatic microsomes
T1 construct: other: 10^−4 M; rat hepatic microsomes; other: 3 × 10^−5 M; other: 10^−5 M; ot
Procedure: I. In-Vitro Determination of Inhibition of ACAT (Acyl CoA-Cholesterol Acyltransferase)
The in-vitro determination of the inhibition of the enzyme ACAT by the compounds of the invention is carried out in principle as described in the publication of Largis EE, Wang CH, DeVries VG and Schaffer SA (1989), “A Novel inhibitor of ACAT-catalyzed cholesterol esterification and cholesterol absorption”, J. Lipid Res. 30, 681-689, (1989), whereby hepatic microsomes are used. The radio-substrate used is [^14C]-Palmitoyl CoA. The respective parts of the description are hereby incorporated by reference and forms part of the present disclosure.
Briefly hepatic microsomes were prepared from the Wistar rats. Enzyme inhibition experiments were performed in presence of 18 μM [^14C]-Palmitoyl CoA as substrate. The vehicle used was 1% DMSO. Compounds to be tested were present at various concentrations and the incubation buffer used was 0.2 M Phosphate buffer, pH 7.4 at 25° C. After a 15 minutes preincubation period at 37° C. an incubation period of 10 minutes at 37° C. followed. Quantification of [^14C]Cholesterol ester was done by column chromatography.
The inhibition of the enzyme ACAT by the inventive substituted pyrazoline compounds was determined as described above.

[2] = biological target: ACAT (Acyl CoA-Cholesterol Acyltransferase); details: reported value for the reference compound; cited from earlier work
[3] = 3 × 10^−5 M, second table (other experiment)
[4] = 3 × 10^−6 M, second table (other experiment)
[5] = 10^−4 M, second table (other experiment)
[6] = 10^−5 M, second table (other experiment)
[7] = second table (other experiment)

SMILES	ACAT Inhibition (%) at various concentration of example ([1]; 3 × 10^−5 M, first table) [%]	ACAT Inhibition (%) at various concentration of example [1, 3] [%]	ACAT Inhibition (%) at various concentration of example ([1]; 3 × 10^−6 M, first table) [%]	ACAT Inhibition (%) at various concentration of example [1, 4] [%]	ACAT Inhibition (%) at various concentration of example ([1]; 10^−4 M, first table) [%]	ACAT Inhibition (%) at various concentration of example [1, 5] [%]	ACAT Inhibition (%) at various concentration of example ([1]; 10^−5 M, first table) [%]	ACAT Inhibition (%) at various concentration of example [1, 6] [%]	ACAT Inhibition (%) at various concentration of example ([1]; 10^−6 M, first table) [%]	IC50 ([1]; first table) [µM]	IC50 [1, 7] [µM]	ACAT Inhibition (%) at various concentration of example ([1]; 3 × 10^−7 M, first table) [%]	IC50 [2] [µM]
CC1(c2ccc(Cl)cc2)CC(C(=O)NN2CCCCC2)=NN1c1ccc(Cl)cc1Cl.Cl (stereo not shown) [Example 3, 5-(4-Chloro-phenyl)-1-(2,4-dichloro-phenyl)-5-methyl-4,5-dihydro-1H-pyrazole-3-carboxylic acid piperidin-1-ylamide; hydrochloride]	79	85	30	34	92	98	56	62	10	7.63	5.96		
CC1(c2ccc(Cl)cc2)CC(C(=O)NC2CCCCCC2)=NN1c1ccc(Cl)cc1Cl (stereo not shown) [Example 1, 5-(4-Chloro-phenyl)-1-(2,4-dichloro-phenyl)-5-methyl-4,5-dihydro-1H-pyrazole-3-carboxylic acid cycloheptylamide]	54		14		62		46		−1	27.5			
CC1(c2ccc(Cl)cc2)CC(C(=O)NN2CCCCCC2)=NN1c1ccc(Cl)cc1Cl.Cl (stereo not shown) [Example 2, 5-(4-Chloro-phenyl)-1-(2,4-dichloro-phenyl)-5-methyl-4,5-dihydro-1H-pyrazole-3-carboxylic acid azepan-1-ylamide; hydrochloride]	91	94	32	37		98	68	75	20	4.93	4.39	10	
CC[C@H](C)C(=O)O[C@H]1C[C@@H](C)C=C2C=C[C@H](C)[C@H](CC[C@@H]3C[C@@H](O)CC(=O)O3)[C@H]21 [Lovastatin, reference compound]										22.7	12.5		29
